Broadly, the IC50 is the concentration that inhibits the measured activity by half.

For this assay, the target named is SARS-CoV-2 Papain like protease (PLpro) (Severe acute respiratory syndrome coronavirus 2 (2019-nCoV) (SARS-CoV-2), UniProt P0DTD1). The assay can be described thus: Papain Like Protease (PLpro) biochemical assay with profluorogenic substrate Z-RLRGG-AMC. Particulars: SARS-CoV-2 PLpro 6.25 nM, 25 μM Z-RLRGG-AMC substrate, 60 minute reaction.

Structures are written as SMILES. Read-outs that look alike come from different tables or passages of the source.

Take `Cc1ccc(N2CCN(C)CC2)cc1C(=O)NC(C)c1cc(-c2cc(C(=O)N(C)C)c[nH]2)cc2ccccc12` (stereo not drawn) [Example 229, N,N-dimethyl-5-(4-(1-(2-methyl-5-(4-methylpiperazin-1-yl)benzamido)ethyl)naphthalen-2-yl)-1H-pyrrole-3-carboxamide]: the concentration for half-maximal inhibition (IC50) (read-out: IC50) stood at 0.006 µM. In turn, `Cc1ccc(N2CCNCC2)cc1C(=O)NC1(c2cc(-c3cnn(C)c3)cc3ccccc23)CC1` [Example 230, 2-methyl-N-(1-(3-(1-methyl-1H-pyrazol-4-yl)naphthalen-1-yl)cyclopropyl)-5-(piperazin-1-yl)benzamide] registered an IC50 (IC50 (μM)) of 0.003 µM.

`Cc1ccc(N2CCN(C)CC2)cc1C(=O)NC1(c2cc(-c3cnn(C)c3)cc3ccccc23)CC1` [Example 231, 2-methyl-N-(1-(3-(1-methyl-1H-pyrazol-4-yl)naphthalen-1-yl)cyclopropyl)-5-(4-methylpiperazin-1-yl)benzamide] gave an IC50 (IC50 (μM)) of 0.003 µM. Turning to `CCOC(=O)/C=C/C(=O)NNC(=O)CCc1ccccc1C(=O)N[C@H](C)c1cc(-c2cnn(C)c2)nc2ccccc12` [Example 232, ethyl (R,E)-4-(2-(3-(2-((1-(2-(1-methyl-1H-pyrazol-4-yl)quinolin-4-yl)ethyl)carbamoyl)phenyl)propanoyl)hydrazineyl)-4-oxobut-2-enoate], the IC50 (read-out: IC50) came to 0.003 µM. Take `CC(C)OC(=O)/C=C/C(=O)NNC(=O)CCc1ccccc1C(=O)N[C@H](C)c1cc(-c2cnn(C)c2)nc2ccccc12` [Example 233, isopropyl (R,E)-4-(2-(3-(2-((1-(2-(1-methyl-1H-pyrazol-4-yl)quinolin-4-yl)ethyl)carbamoyl)phenyl)propanoyl)hydrazineyl)-4-oxobut-2-enoate]: the IC50 (read-out: IC50) was determined as 0.003 µM.

On to `C[C@@H](NC(=O)c1ccccc1CCC(=O)NNC(=O)/C=C/C(=O)N(C)C)c1cc(-c2cnn(C)c2)nc2ccccc12` [Example 234, (R,E)-2-(3-(2-(4-(dimethylamino)-4-oxobut-2-enoyl)hydrazineyl)-3-oxopropyl)-N-(1-(2-(1-methyl-1H-pyrazol-4-yl)quinolin-4-yl)ethyl)benzamide], for which, for the setting “read-out: IC50”, the IC50 was 0.128 µM.

Consider `Cc1ccc(N2CCCC(N)C2=O)cc1C(=O)N[C@H](C)c1cc(-c2cnn(C)c2)nc2ccccc12` (stereo partly drawn) [Example 235], for which the concentration for half-maximal inhibition (IC50) (read-out: IC50) worked out at 0.091 µM. With `Cc1cc(CC(=O)Nc2cscn2)ccc1C(=O)N[C@H](C)c1cc(-c2cnn(C)c2)nc2ccccc12` [Example 236, (R)-2-methyl-N-(1-(2-(1-methyl-1H-pyrazol-4-yl)quinolin-4-yl)ethyl)-4-(2-oxo-2-(thiazol-4-ylamino)ethyl)benzamide], under “read-out: IC50”, the half-maximal inhibitory concentration (IC50) was 0.003 µM. On the same count and under the same terms, under `Cc1cc(CC(=O)Nc2cncs2)ccc1C(=O)N[C@H](C)c1cc(-c2cnn(C)c2)nc2ccccc12` [Example 237, (R)-2-methyl-N-(1-(2-(1-methyl-1H-pyrazol-4-yl)quinolin-4-yl)ethyl)-4-(2-oxo-2-(thiazol-5-ylamino)ethyl)benzamide] stands 0.036 µM. For the compound `Cc1cc(CC(=O)Nc2nccs2)ccc1C(=O)N[C@H](C)c1cc(-c2cnn(C)c2)nc2ccccc12` [Example 238, (R)-2-methyl-N-(1-(2-(1-methyl-1H-pyrazol-4-yl)quinolin-4-yl)ethyl)-4-(2-oxo-2-(thiazol-2-ylamino)ethyl)benzamide], the IC50 (read-out: IC50) was determined as 0.016 µM. Take `Cc1cc(CC(=O)Nc2ncc[nH]2)ccc1C(=O)N[C@H](C)c1cc(-c2cnn(C)c2)nc2ccccc12` [Example 239, (R)-4-(2-((1H-imidazol-2-yl)amino)-2-oxoethyl)-2-methyl-N-(1-(2-(1-methyl-1H-pyrazol-4-yl)quinolin-4-yl)ethyl)benzamide]: under “read-out: IC50”, the IC50 is 0.007 µM. For the compound `Cc1ccc(N2CCC3(CCCCN3)C2=O)cc1C(=O)N[C@H](C)c1cc(-c2cnn(C)c2)nc2ccccc12` (stereo partly drawn) [Example 240], the IC50 (read-out: IC50) amounted to 0.026 µM. With `Cc1cc(C(C)(C)NCc2cscn2)ccc1C(=O)N[C@H](C)c1cc(-c2cnn(C)c2)nc2ccccc12` [Example 241, (R)-2-methyl-N-(1-(2-(1-methyl-1H-pyrazol-4-yl)quinolin-4-yl)ethyl)-4-(2-((thiazol-4-ylmethyl)amino)propan-2-yl)benzamide], where the note is “read-out: IC50”, the half-maximal inhibitory concentration (IC50) stood at 0.007 µM. `Cc1cc(C(=O)NC2(c3ncc[nH]3)CC2)ccc1C(=O)N[C@H](C)c1cc(-c2cnn(C)c2)nc2ccccc12` [Example 242]: the half-inhibitory concentration (IC50) (read-out: IC50) was 0.006 µM. On to `Cc1cc(C(=O)N(C)Cc2cscn2)ccc1C(=O)N[C@H](C)c1cc(-c2cnn(C)c2)nc2ccccc12` [Example 243], for which the IC50 (read-out: IC50) was determined as 0.077 µM.

Consider `Cc1cc(C(=O)NC(C)(C)c2ncc[nH]2)ccc1C(=O)N[C@H](C)c1cc(-c2cnn(C)c2)nc2ccccc12` [Example 244], for which the IC50 (read-out: IC50) amounted to 0.167 µM. `Cc1cc(C(=O)NCc2ncc[nH]2)ccc1C(=O)N[C@H](C)c1cc(-c2cnn(C)c2)nc2ccccc12` [Example 245]: the half-inhibitory concentration (IC50) (read-out: IC50) stood at 0.005 µM. `Cc1cc(C(=O)NC(C)c2ncc[nH]2)ccc1C(=O)N[C@H](C)c1cc(-c2cnn(C)c2)nc2ccccc12` (stereo partly drawn) [Example 246]: the concentration for half-maximal inhibition (IC50) (read-out: IC50) came out at 0.035 µM. Consider `Cc1ccc(N2CCC(N)C2=O)cc1C(=O)N[C@H](C)c1cc(-c2cnn(C)c2)nc2ccccc12` (stereo partly drawn) [Example 247], for which the half-maximal inhibitory concentration (IC50) (read-out: IC50) came out at 0.091 µM. As for `Cc1ccc(N2CCNCC2=O)cc1C(=O)N[C@H](C)c1cc(-c2cnn(C)c2)nc2ccccc12` [Example 248], the IC50 (read-out: IC50) is 0.39 µM. Take `Cc1ccc(N2CCN(C)CC2=O)cc1C(=O)N[C@H](C)c1cc(-c2cnn(C)c2)nc2ccccc12` [Example 249, (R)-2-methyl-N-(1-(2-(1-methyl-1H-pyrazol-4-yl)quinolin-4-yl)ethyl)-5-(4-methyl-2-oxopiperazin-1-yl)benzamide]: under “read-out: IC50”, the IC50 came out at 0.733 µM. Consider `CCOC(=O)[C@@H]1O[C@H]1C(=O)NNC(=O)CCc1ccccc1C(=O)N[C@H](C)c1cc(-c2cnn(C)c2)nc2ccccc12` [Example 250, ethyl (2R,3R)-3-(2-(3-(2-(((R)-1-(2-(1-methyl-1H-pyrazol-4-yl)quinolin-4-yl)ethyl)carbamoyl)phenyl)propanoyl)hydrazine-1-carbonyl)oxirane-2-carboxylate], for which, for the setting “read-out: IC50”, the IC50 came out at 0.002 µM. `Cc1ccc(N2CC3CC(C2)N3)cc1C(=O)N[C@H](C)c1cc(-c2cnn(C)c2)nc2ccccc12` [Example 251, 5-(3,6-diazabicyclo[3.1.1]heptan-3-yl)-2-methyl-N—((R)-1-(2-(1-methyl-1H-pyrazol-4-yl)quinolin-4-yl)ethyl)benzamide]: half-maximal inhibition (IC50 (μM)) (IC50) was put at 0.005 µM. In turn, `Cc1ccc(N2CC3CC(C2)N3C)cc1C(=O)N[C@H](C)c1cc(-c2cnn(C)c2)nc2ccccc12` [Example 252, 2-methyl-N—((R)-1-(2-(1-methyl-1H-pyrazol-4-yl)quinolin-4-yl)ethyl)-5-(6-methyl-3,6-diazabicyclo[3.1.1]heptan-3-yl)benzamide] registered a 50% inhibitory concentration (IC50) (IC50 (μM)) of 0.005 µM. For the compound `Cc1cc(C(=O)NCc2nccn2C)ccc1C(=O)NC1(c2cc(-c3cnn(C)c3)nc3ccccc23)CC1` [Example 253], the IC50 (read-out: IC50) stood at 0.006 µM.

As to `Cc1cc(C(=O)NCc2cscn2)ccc1C(=O)NC1(c2cc(-c3cnn(C)c3)nc3ccccc23)CC1` [Example 254], the IC50 (read-out: IC50) came out at 0.005 µM. On the same count and under the same terms, the figure for `Cc1ccc(N2CC3CC2CN3)cc1C(=O)N[C@H](C)c1cc(-c2cnn(C)c2)nc2ccccc12` (stereo partly drawn) [Example 255] is 0.019 µM. `Cc1ccc(N2CC3CC2CN3C)cc1C(=O)N[C@H](C)c1cc(-c2cnn(C)c2)nc2ccccc12` (stereo partly drawn) [Example 256, 2-methyl-N-((R)-1-(2-(1-methyl-1H-pyrazol-4-yl)quinolin-4-yl)ethyl)-5-(5-methyl-2,5-diazabicyclo[2.2.1]heptan-2-yl)benzamide]: the IC50 (read-out: IC50) was 0.015 µM. For the compound `CNC(=O)c1cc(-c2cc([C@@H](C)NC(=O)c3cc(CN)ccc3C)c3ccccc3n2)cn1C` [Example 257, (R)-4-(4-(1-(5-(aminomethyl)-2-methylbenzamido)ethyl)quinolin-2-yl)-N,1-dimethyl-1H-pyrrole-2-carboxamide], the IC50 (read-out: IC50) came out at 0.022 µM. On to `Cc1ccc(CN)cc1C(=O)N[C@H](C)c1cc(-c2cc(C(=O)N(C)C)n(C)c2)nc2ccccc12` [Example 258, (R)-4-(4-(1-(5-(aminomethyl)-2-methylbenzamido)ethyl)quinolin-2-yl)-N,N,1-trimethyl-1H-pyrrole-2-carboxamide], for which the half-inhibitory concentration (IC50) (read-out: IC50) was 0.044 µM. Regarding `CNC(=O)Cc1ccc(C(=O)N[C@H](C)c2cc(-c3cnn(C)c3)nc3ccccc23)c(C)c1` [Example 259, (R)-2-methyl-N-(1-(2-(1-methyl-1H-pyrazol-4-yl)quinolin-4-yl)ethyl)-4-(2-(methylamino)-2-oxoethyl)benzamide], the IC50 (read-out: IC50) was found to be 0.147 µM.

On to `Cc1cc(CC(=O)N(C)C)ccc1C(=O)N[C@H](C)c1cc(-c2cnn(C)c2)nc2ccccc12` [Example 260, (R)-4-(2-(dimethylamino)-2-oxoethyl)-2-methyl-N-(1-(2-(1-methyl-1H-pyrazol-4-yl)quinolin-4-yl)ethyl)benzamide], for which, under “read-out: IC50”, the IC50 is 0.244 µM. The same measure, in the same setting: the figure for `Cc1ccc(N2CC3CNCC3C2)cc1C(=O)N[C@H](C)c1cc(-c2cnn(C)c2)nc2ccccc12` (stereo partly drawn) [Example 261] is 0.021 µM; for `Cc1ccc(N2CC3CN(C)CC3C2)cc1C(=O)N[C@H](C)c1cc(-c2cnn(C)c2)nc2ccccc12` (stereo partly drawn) [Example 262, 2-methyl-N-((R)-1-(2-(1-methyl-1H-pyrazol-4-yl)quinolin-4-yl)ethyl)-5-(5-methylhexahydropyrrolo[3,4-c]pyrrol-2(1H)-yl)benzamide] it is 0.008 µM. The same measure, in the same setting: the figure for `COC(=O)c1cc(-c2cc([C@@H](C)NC(=O)c3cc(CN)ccc3C)c3ccccc3n2)n(C)c1` [Example 263, methyl(R)-5-(4-(1-(5-(aminomethyl)-2-methylbenzamido)ethyl)quinolin-2-yl)-1-methyl-1H-pyrrole-3-carboxylate] is 0.231 µM. As for `Cc1cc(CN(C)C(=O)c2cscn2)ccc1C(=O)N[C@H](C)c1cc(-c2cnn(C)c2)nc2ccccc12` [Example 264, (R)-N-methyl-N-(3-methyl-4-((1-(2-(1-methyl-1H-pyrazol-4-yl)quinolin-4-yl)ethyl)carbamoyl)benzyl)thiazole-4-carboxamide], where the note is “read-out: IC50”, the IC50 was determined as 0.022 µM.

The values above are taken from US20240245673A1, “Papain-like protease (PLpro) inhibitors” (Pfizer Inc., priority 2022, published 2024).
